Results from patent US9546150B2, “Substituted quinazolin-4-ones for inhibiting ubiquitin specific protease 7” (HYBRIGENICS SA, priority 2011, dated 2017).

Experiments:
Format in all cases: biochemical
[1] = target: USP7 (Homo sapiens, UniProt Q93009); test: USP7 activity assay, Ub-AMC substrate; parameters: Full-length wild-type human USP7 and its catalytic mutant; His tag (pFastBac-HT vector) (N); made in house; host or cells: Spodoptera frugiperda Sf9 (or High Five) insect cells, baculovirus; conditions: UbAMC substrate 300 nM, USP7 100 pM
Procedure: Bacmid DNA was prepared by an alkaline lysis procedure. The integrity of the bacmid minipreps and their orientation were checked by PCR, using generic and specific primers. Sf9 insect cells were cultured in InsectXpress medium (Cambrex) at 27° C. and transfected with the corresponding bacmid, using GeneShuttle 40 (Q-BIOgen). Viruses were recovered in the supernatant 72 h after transfection. Viruses were amplified by infecting insect cells (Sf9 or High Five cells; invitrogen) in 50 ml InsectXpress medium in a 150 cm^2 cell culture flask with 500 μl of the supernatant from transfected Sf9 cells. Following the second round of amplification, infected cells were recovered by rapid SDS lysis, boiled for 5 min at 100° C., sonicated briefly and centrifuged for 20 min at 14,000 g.
USP7 was diluted in USP buffer (50 mM Tris HCl; 0.5 mM EDTA (Ethylenediaminetetraacetic acid); 5 mM DTT; 0.01% Triton X-100; Bovine Serum Albumin 0.05 mg·ml^−1 pH7.6). Compounds stocks (10 mM) were stored at −20° C. in DMSO.
Reactions were performed as duplicates in Black 384 well plates (small volumes microplates; Greiner; 10 μl final reaction volume). […] The concentrations of the enzyme (USP7) in specificity assays was 100 pM. The concentrations were determined in order to perform specificity assays under initial velocities at fixed substrate concentration. Compounds were pre-incubated with enzymes for 30 minutes at 25° C. Reactions were initiated by addition of substrate to the plates containing the enzymes (+/− compounds) diluted in assay buffer. Reactions were incubated for 60 minutes at 37° C. Reactions were stopped by adding acetic acid (100 mM final). Readings were performed on a Pherastar Fluorescent Reader (BMG). λ Emission […].

[2] = target: T1, UCH-L3 (Homo sapiens, UniProt P15374); test: UCH-L3 activity assay, Ub-AMC substrate; conditions: UbAMC substrate 300 nM, UCH-L3 13 pM
T1 sequence (P15374 1-230): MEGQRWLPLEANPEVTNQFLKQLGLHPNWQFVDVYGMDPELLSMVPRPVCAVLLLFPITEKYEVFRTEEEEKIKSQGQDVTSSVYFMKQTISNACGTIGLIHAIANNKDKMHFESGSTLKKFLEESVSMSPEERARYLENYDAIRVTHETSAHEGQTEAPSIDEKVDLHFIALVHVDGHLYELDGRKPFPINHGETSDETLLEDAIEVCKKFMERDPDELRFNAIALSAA
Procedure: UCH-L3 was diluted in USP buffer (50 mM Tris HCl; 0.5 mM EDTA; 5 mM DTT; 0.01% Triton X-100; Bovine Serum Albumin 0.05 mg·ml^−1 pH7.6). Compounds stocks (100 mM) were stored at −20° C. in DMSO. Compounds were tested at different concentrations: from 200 μM to 91 nM.
Reactions were performed as duplicates in Black 384 well plates (small volume microplates; Greiner; 10 μl final reaction volume). The substrate concentration for UCH-L3 was 300 nM Ub-AMC (Boston Biochem). The concentration of the enzyme (UCH-L3) in specificity assays was 13 pM. The concentrations were determined in order to perform specificity assays under initial velocities at fixed substrate concentration. Compounds were pre-incubated with enzymes for 30 minutes at 25° C. Reactions were initiated by addition of substrate to the plates containing the enzymes (+/− compounds) diluted in assay buffer. Reactions were incubated for 60 minutes at 37° C. Reactions were stopped by adding acetic acid (100 mM final). Readings were performed on a Pherastar Fluorescent Reader (BMG). λ Emission 380 nm; λ Excitation=460 nm.

[3] = target: T2, USP5 (Homo sapiens, UniProt P45974); test: USP5 activity assay, Ub-AMC substrate; conditions: UbAMC substrate 300 nM, USP5 300 pM
T2 sequence (P45974 1-858): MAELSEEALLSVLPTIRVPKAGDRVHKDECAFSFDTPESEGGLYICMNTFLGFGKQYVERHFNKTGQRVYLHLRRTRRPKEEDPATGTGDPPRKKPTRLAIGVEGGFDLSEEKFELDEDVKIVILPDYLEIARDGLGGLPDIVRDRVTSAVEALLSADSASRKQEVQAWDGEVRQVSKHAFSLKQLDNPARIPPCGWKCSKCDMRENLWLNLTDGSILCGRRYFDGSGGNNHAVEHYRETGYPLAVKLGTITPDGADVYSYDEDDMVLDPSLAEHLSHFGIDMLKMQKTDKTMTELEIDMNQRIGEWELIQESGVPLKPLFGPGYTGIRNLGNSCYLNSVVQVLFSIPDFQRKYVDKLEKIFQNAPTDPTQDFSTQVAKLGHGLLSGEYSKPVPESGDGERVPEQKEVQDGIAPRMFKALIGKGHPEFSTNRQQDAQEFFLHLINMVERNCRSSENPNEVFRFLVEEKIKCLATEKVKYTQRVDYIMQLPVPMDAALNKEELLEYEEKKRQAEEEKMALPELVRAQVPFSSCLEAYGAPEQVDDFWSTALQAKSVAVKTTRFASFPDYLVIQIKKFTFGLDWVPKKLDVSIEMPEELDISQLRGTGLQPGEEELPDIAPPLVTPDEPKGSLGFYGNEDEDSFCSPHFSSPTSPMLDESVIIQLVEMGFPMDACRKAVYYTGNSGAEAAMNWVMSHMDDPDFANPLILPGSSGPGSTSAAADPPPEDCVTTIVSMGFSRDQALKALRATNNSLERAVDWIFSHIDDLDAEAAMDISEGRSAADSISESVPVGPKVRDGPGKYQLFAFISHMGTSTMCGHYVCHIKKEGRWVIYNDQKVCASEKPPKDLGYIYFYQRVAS
Procedure: USP5 was diluted in USP buffer (50 mM Tris HCl; 0.5 mM EDTA; 5 mM DTT; 0.01% Triton X-100; Bovine Serum Albumin 0.05 mg·ml^−1 pH 7.6). Compounds stocks (100 mM) were stored at −20° C. in DMSO.
Reactions were performed as duplicates in Black 384 well plates (small volume microplates; Greiner; 10 μl final reaction volume). The substrate concentration for USP5 was 300 nM Ub-AMC (Boston Biochem). The concentrations of the enzyme (USP5) in specificity assays was 300 pM. The concentrations were determined in order to perform specificity assays under initial velocities at fixed substrate concentration. Compounds were pre-incubated with enzymes for 30 minutes at 25° C. Reactions were initiated by addition of substrate to the plates containing the enzymes (+/− compounds) diluted in assay buffer. Reactions were incubated for 60 minutes at 37° C. Reactions were stopped by adding acetic acid (100 mM final). Readings were performed on a Pherastar Fluorescent Reader (BMG). λ Emission 380 nm; λ Excitation=460 nm.

Sequence of USP7 (Q93009 whole entry): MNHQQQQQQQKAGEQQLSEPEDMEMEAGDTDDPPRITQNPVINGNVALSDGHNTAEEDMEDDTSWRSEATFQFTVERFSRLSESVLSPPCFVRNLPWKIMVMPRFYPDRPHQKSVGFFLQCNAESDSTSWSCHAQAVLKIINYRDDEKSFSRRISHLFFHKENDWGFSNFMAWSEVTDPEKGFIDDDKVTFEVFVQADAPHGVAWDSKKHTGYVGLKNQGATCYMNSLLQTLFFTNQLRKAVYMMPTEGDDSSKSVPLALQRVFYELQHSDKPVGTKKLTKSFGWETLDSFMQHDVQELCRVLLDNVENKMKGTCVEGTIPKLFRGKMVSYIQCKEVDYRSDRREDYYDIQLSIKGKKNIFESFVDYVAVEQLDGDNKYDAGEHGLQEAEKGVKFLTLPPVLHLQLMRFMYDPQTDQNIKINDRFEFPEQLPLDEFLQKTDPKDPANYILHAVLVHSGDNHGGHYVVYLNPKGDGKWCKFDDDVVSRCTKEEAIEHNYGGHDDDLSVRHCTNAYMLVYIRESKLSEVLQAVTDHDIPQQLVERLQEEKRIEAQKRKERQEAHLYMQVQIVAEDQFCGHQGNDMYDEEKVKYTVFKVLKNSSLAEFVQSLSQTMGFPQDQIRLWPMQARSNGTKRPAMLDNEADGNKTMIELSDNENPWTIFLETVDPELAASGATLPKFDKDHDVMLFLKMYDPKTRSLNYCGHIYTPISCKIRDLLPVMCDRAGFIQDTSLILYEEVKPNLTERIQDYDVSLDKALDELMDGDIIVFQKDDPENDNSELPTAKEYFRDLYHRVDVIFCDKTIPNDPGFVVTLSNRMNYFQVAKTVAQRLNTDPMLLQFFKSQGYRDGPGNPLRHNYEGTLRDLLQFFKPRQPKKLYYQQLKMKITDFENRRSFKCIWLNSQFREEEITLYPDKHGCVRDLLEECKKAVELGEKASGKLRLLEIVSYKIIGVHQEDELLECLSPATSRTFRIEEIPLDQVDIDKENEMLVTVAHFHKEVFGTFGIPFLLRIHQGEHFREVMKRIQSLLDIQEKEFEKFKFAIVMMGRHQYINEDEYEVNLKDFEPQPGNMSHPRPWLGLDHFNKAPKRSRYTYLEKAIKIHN

Row | SMILES | IC50 [1] | IC50 [2] | IC50 [3]
1 | O=C(CCc1ccccc1)N1CCC(O)(Cn2cnc3ccccc3c2=O)CC1 [Example 1, 3-{[4-hydroxy-1-(3-phenylpropanoyl)piperidin-4-yl]methyl}-3,4-dihydroquinazolin-4-one] | 69 µM | > 200 µM | > 200 µM
2 | O=C(CCc1ccccc1)N1CCC(O)(Cn2cnc3cc(Cl)ccc3c2=O)CC1 [Example 2, 7-chloro-3-{[4-hydroxy-1-(3-phenylpropanoyl)piperidin-4-yl]methyl}-3,4-dihydroquinazolin-4-one] | 33 µM | > 200 µM | –
3 | O=C(CCC1CCCC1)N1CCC(O)(Cn2cnc3ccccc3c2=O)CC1 [Example 3, 3-{[1-(3-cyclopentylpropanoyl)-4-hydroxypiperidin-4-yl]methyl}-3,4-dihydroquinazolin-4-one] | 100 µM | > 200 µM | > 200 µM
4 | CC(Cc1cccs1)C(=O)N1CCC(O)(Cn2cnc3ccccc3c2=O)CC1 (stereo not shown) [Example 5, 3-({4-hydroxy-1-[2-methyl-3-(thiophen-2-yl)propanoyl]piperidin-4-yl}methyl)-3,4-dihydroquinazolin-4-one] | 37 µM | > 200 µM | > 200 µM
5 | COc1cc2ncn(CC3(O)CCN(C(=O)C(C)C)CC3)c(=O)c2cc1OC [Example 7, 3-{[4-hydroxy-1-(2-methylpropanoyl)piperidin-4-yl]methyl}-6,7-dimethoxy-3,4-dihydroquinazolin-4-one] | 90 µM | > 200 µM | > 200 µM
6 | COc1ccccc1CCC(=O)N1CCC(O)(Cn2cnc3ccccc3c2=O)CC1 [Example 10, 3-({4-hydroxy-1-[3-(2-methoxyphenyl)propanoyl]piperidin-4-yl}methyl)-3,4-dihydroquinazolin-4-one] | 261 µM | > 200 µM | > 200 µM
7 | O=C(CCc1cccs1)N1CCC(O)(Cn2cnc3ccccc3c2=O)CC1 [Example 12, 3-({4-hydroxy-1-[3-(thiophen-2-yl)propanoyl]piperidin-4-yl}methyl)-3,4-dihydroquinazolin-4-one] | 70 µM | > 200 µM | > 200 µM
8 | CC(Cc1ccccc1)C(=O)N1CCC(O)(Cn2cnc3ccccc3c2=O)CC1 (stereo not shown) [Example 13, 3-{[1-(2-benzylpropanoyl)-4-hydroxypiperidin-4-yl]methyl}-3,4-dihydroquinazolin-4-one] | – | > 200 µM | > 200 µM

The remaining lines, values ahead:

Row | IC50 [1] | IC50 [2] | IC50 [3] | SMILES
9 | 54 µM | > 200 µM | > 200 µM | O=C(CCC1CCCC1)N1CCC(O)(Cn2cnc3cc(Cl)ccc3c2=O)CC1 [Example 4, 7-chloro-3-{[1-(3-cyclopentylpropanoyl)-4-hydroxypiperidin-4-yl]methyl}-3,4-dihydroquinazolin-4-one]
10 | 156 µM | > 200 µM | > 200 µM | CC(C)C(=O)N1CCC(O)(Cn2cnc3ccccc3c2=O)CC1 [Example 6, 3-{[4-hydroxy-1-(2-methylpropanoyl)piperidin-4-yl]methyl}-3,4-dihydroquinazolin-4-one]
11 | 155 µM | > 200 µM | > 200 µM | CCC(CC)C(=O)N1CCC(O)(Cn2cnc3cc(Cl)ccc3c2=O)CC1 [Example 9, 7-chloro-3-{[1-(2-ethylbutanoyl)-4-hydroxypiperidin-4-yl]methyl}-3,4-dihydroquinazolin-4-one]
12 | 40 µM | > 200 µM | > 200 µM | CC(Cc1cccs1)C(=O)N1CCC(O)(Cn2cnc3cc(Cl)ccc3c2=O)CC1 (stereo not shown) [Example 11, 7-chloro-3-({4-hydroxy-1-[2-methyl-3-(thiophen-2-yl)propanoyl]piperidin-4-yl}methyl)-3,4-dihydroquinazolin-4-one]
13 | 24 µM | > 200 µM | > 200 µM | CC(Cc1ccccc1)C(=O)N1CCC(O)(Cn2cnc3cc(Cl)ccc3c2=O)CC1 (stereo not shown) [Example 14, 3-{[1-(2-benzylpropanoyl)-4-hydroxypiperidin-4-yl]methyl}-7-chloro-3,4-dihydroquinazolin-4-one]
